Measurements from paper PMC10691210 (Proceedings of the National Academy of Sciences of the …, 2023).

Test system: whole plants
Assay: Herbicidal activity on whole plants
Type: in vivo

## Cc1nc2c(F)c(F)ccc2cc1Oc1cccc(F)c1C(C)(C)O [ipflufenoquin]
  herbicidal effectiveness: ineffective
